For one assay, the target named is F508del V470 CFTR (Homo sapiens, UniProt P13569, DEL508-508). The experiment in a line: FRT Ion Flux Assay of F508del CFTR Potentiation. Type of assay: cell-based. The following applies: FRT cells expressing F508del V470 CFTR and halide-sensitive YFP, forskolin 20 uM, 30 min.
In the next assay the target is CFTR (Homo sapiens, UniProt P13569). Nature of the assay: Ussing Chamber Electrophysiology Assay of CFTR Potentiation in CF Bronchial Epithelial Cells. Type of assay: cell-based. The following applies: primary CF hBE cells, short-circuit current, scaled to DMSO (0%) and positive control potentiator (100%). In outline: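 Primary F508del/F508del (27 °C) or G551D/F508del (35 °C) CF hBE cultures, >30 days at air/liquid interface, short-circuit current under voltage clamp in HEPES saline. Sequential amiloride 30 uM, forskolin 10 uM, four rising compound concentrations, CFTRinh-172 20 uM, 20-25 min apart; scaled to DMSO (0%) and maximal positive-control potentiator response (100%).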

Chain of F508del V470 CFTR (P13569 with tags, fused parts or gaps DEL508-508): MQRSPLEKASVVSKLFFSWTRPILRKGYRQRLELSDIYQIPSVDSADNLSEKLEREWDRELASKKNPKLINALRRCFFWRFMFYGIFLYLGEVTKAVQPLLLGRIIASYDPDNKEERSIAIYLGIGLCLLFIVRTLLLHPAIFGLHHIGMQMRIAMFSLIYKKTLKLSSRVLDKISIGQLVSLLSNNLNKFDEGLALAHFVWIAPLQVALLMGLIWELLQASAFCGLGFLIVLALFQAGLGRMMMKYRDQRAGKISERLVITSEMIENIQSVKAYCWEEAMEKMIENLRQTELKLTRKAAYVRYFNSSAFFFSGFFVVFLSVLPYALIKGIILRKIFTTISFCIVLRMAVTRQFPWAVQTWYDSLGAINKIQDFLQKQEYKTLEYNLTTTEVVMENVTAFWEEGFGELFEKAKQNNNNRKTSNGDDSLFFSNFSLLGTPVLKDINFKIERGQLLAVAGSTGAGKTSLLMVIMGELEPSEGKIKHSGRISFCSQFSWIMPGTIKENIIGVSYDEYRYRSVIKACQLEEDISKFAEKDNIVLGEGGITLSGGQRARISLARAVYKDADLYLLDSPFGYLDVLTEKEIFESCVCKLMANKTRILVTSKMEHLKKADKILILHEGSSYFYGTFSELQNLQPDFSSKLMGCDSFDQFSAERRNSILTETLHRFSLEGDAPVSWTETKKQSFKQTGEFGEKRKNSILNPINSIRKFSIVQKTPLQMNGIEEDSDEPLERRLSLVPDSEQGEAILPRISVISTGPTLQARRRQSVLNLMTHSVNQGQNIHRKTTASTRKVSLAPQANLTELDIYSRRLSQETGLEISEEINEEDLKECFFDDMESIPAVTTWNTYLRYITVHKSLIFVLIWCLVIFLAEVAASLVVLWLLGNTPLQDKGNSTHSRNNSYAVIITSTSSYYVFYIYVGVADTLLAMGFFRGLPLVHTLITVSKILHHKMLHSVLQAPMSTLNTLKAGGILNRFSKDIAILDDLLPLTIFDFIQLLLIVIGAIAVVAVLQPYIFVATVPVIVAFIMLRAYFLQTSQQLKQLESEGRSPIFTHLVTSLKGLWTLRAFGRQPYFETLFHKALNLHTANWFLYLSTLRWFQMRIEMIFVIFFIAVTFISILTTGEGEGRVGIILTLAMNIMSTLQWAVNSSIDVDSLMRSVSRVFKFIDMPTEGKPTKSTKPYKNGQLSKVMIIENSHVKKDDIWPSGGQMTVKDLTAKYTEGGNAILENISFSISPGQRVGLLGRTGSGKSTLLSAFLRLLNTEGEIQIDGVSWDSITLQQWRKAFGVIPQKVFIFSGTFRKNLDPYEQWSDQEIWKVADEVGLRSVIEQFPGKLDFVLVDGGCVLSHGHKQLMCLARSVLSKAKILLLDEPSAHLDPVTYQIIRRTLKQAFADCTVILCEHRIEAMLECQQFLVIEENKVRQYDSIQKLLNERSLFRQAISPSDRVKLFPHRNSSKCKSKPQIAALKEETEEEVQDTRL

For orientation: EC50 means the midpoint of the concentration-response curve. For the compound `CCC(c1cn(-c2ccccc2)nn1)n1nc(-c2cnc(C(F)(F)F)nc2)c2c(N)ncnc21` (single isomer, unassigned) [Example 94, 1-[1-(1-phenyl-1H-1,2,3-triazol-4-yl)propyl]-3-[2-(trifluoromethyl)pyrimidin-5-yl]-1H-pyrazolo[3,4-d]pyrimidin-4-amine], the EC50 at F508del V470 CFTR came out at 50.3 nM; at CFTR, 74.4 nM.
`CCC(c1cn(-c2ccccc2)nn1)n1nc(-c2cnc(C(F)(F)F)nc2)c2c(N)ncnc21` (single isomer, unassigned) [Example 95, 1-[1-(1-phenyl-1H-1,2,3-triazol-4-yl)propyl]-3-[2-(trifluoromethyl)pyrimidin-5-yl]-1H-pyrazolo[3,4-d]pyrimidin-4-amine]: the figures for the EC50 at F508del V470 CFTR and on CFTR were 349 nM and 188 nM, respectively.
For the compound `CC(c1cn(-c2cc(F)ccc2F)nn1)c1cc(-c2cnc(C(F)(F)F)nc2)c2c(N)ncnn12` (single isomer, unassigned) [Example 98, 7-{1-[1-(2,5-difluorophenyl)-1H-1,2,3-triazol-4-yl]ethyl}-5-[2-(trifluoromethyl)pyrimidin-5-yl]pyrrolo[2,1-f][1,2,4]triazin-4-amine], the EC50 was 26 nM at F508del V470 CFTR and 19.8 nM at CFTR.
In the case of `CCC(c1cn(-c2ccc(F)cc2F)nn1)n1nc(-c2cnc(C(F)(F)F)nc2)c2c(N)ncnc21` (single isomer, unassigned) [Example 99, 1-{1-[1-(2,4-difluorophenyl)-1H-1,2,3-triazol-4-yl]propyl}-3-[2-(trifluoromethyl)pyrimidin-5-yl]-1H-pyrazolo[3,4-d]pyrimidin-4-amine], the EC50 was 37.2 nM at F508del V470 CFTR and 29.2 nM on CFTR.
With `N#Cc1c(-c2cnc(C(F)(F)F)nc2)c2c(N)ncnn2c1Cc1cn(-c2ccccc2F)nn1` [Example 22, 4-amino-7-{[1-(2-fluorophenyl)-1H-1,2,3-triazol-4-yl]methyl}-5-[2-(trifluoromethyl)pyrimidin-5-yl]pyrrolo[2,1-f][1,2,4]triazine-6-carbonitrile], the figures for the EC50 at F508del V470 CFTR and on CFTR were 23.3 nM and 27.1 nM, respectively.
On the same counts, the results for `CC(c1cn(-c2ccc(F)cc2F)nn1)c1c(C#N)c(-c2cnc(C(F)(F)F)nc2)c2c(N)ncnn12` (centres unmarked) [Example 24, 4-amino-7-{1-[1-(2,4-difluorophenyl)-1H-1,2,3-triazol-4-yl]ethyl}-5-[2-(trifluoromethyl)pyrimidin-5-yl]pyrrolo[2,1-f][1,2,4]triazine-6-carbonitrile] are 28.7 nM and 20.9 nM.
`N#Cc1c(-c2cnc(C(F)(F)F)nc2)c2c(N)ncnn2c1Cc1cnn(-c2ccccc2F)c1` [Example 30, 4-amino-7-{[1-(2-fluorophenyl)-1H-pyrazol-4-yl]methyl}-5-[2-(trifluoromethyl)pyrimidin-5-yl]pyrrolo[2,1-f][1,2,4]triazine-6-carbonitrile]: the EC50 at F508del V470 CFTR is 0.57 nM; at CFTR, 0.86 nM.
With `N#Cc1c(-c2cnc(C(F)F)nc2)c2c(N)ncnn2c1Cc1cnn(-c2ccccc2F)c1` [Example 31, 4-amino-5-[2-(difluoromethyl)pyrimidin-5-yl]-7-{[1-(2-fluorophenyl)-1H-pyrazol-4-yl]methyl}pyrrolo[2,1-f][1,2,4]triazine-6-carbonitrile], the EC50 on F508del V470 CFTR came to 0.41 nM; on CFTR it was 1.05 nM.
For the compound `N#Cc1c(-c2cnc(C(F)(F)F)nc2)c2c(N)ncnn2c1Cc1cc(-c2ccccc2F)no1` [Example 35, 4-amino-7-{[3-(2-fluorophenyl)-1,2-oxazol-5-yl]methyl}-5-[2-(trifluoromethyl)pyrimidin-5-yl]pyrrolo[2,1-f][1,2,4]triazine-6-carbonitrile], the 50% effective concentration (EC50) on F508del V470 CFTR was 4.65 nM; at CFTR, 4 nM.
As to `CCC(c1cn(-c2ccccc2F)nn1)c1cc(-c2cnc(C(F)(F)F)nc2)c2c(N)ncnn12` (centres unmarked) [Example 82, 7-{1-[1-(2-fluorophenyl)-1H-1,2,3-triazol-4-yl]propyl}-5-[2-(trifluoromethyl)pyrimidin-5-yl]pyrrolo[2,1-f][1,2,4]triazin-4-amine], the EC50 at F508del V470 CFTR was determined as 5.83 nM; at CFTR it was 4.93 nM.

The values above are taken from patent US10131670B2, “Bicyclic heteroaryl derivatives as CFTR potentiators” (CYSTIC FIBROSIS FOUNDATION THERAPEUTICS, INC., priority 2016, dated 2018).
